Common to all, as to test: relative viability (nuclei count vs DMSO), 5 days (fraction); higher = more cells survive
Compound in test [1]: Cn1nnc2c(C(N)=O)ncn2c1=O [Temozolomide] + O=C(c1cc(Cc2n[nH]c(=O)c3ccccc23)ccc1F)N1CCN(C(=O)C2CC2)CC1 [Olaparib] (partner 8 µM)
An outline of the steps:
(§1)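 Lung cancer cell lines were pin-tool dosed in 1536-well plates on the day after seeding, with either a lone drug or a fixed anchor-drug dose plus five library-drug doses (not always all listed) in √10 steps. Nuclei were counted on 4× images after 5 days. Relative viability is the ratio of treated-well to vehicle-well nuclei counts, with each value a median of duplicate plates.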

Compound in test [2]: Cn1nnc2c(C(N)=O)ncn2c1=O [Temozolomide] + Cc1cc(Nc2cc(N3CCN(C)CC3)nc(Sc3ccc(NC(=O)C4CC4)cc3)n2)n[nH]1 [Tozasertib] (partner 0.1 µM)
An outline of the steps:
as §1

Compound in test [3]: C[C@@H](C(=O)N[C@@H](C1CCCCC1)C(=O)N2CCC[C@H]2C(=O)N[C@@H]3[C@@H](CC4=CC=CC=C34)OCC#CC#CCO[C@@H]5CC6=CC=CC=C6[C@@H]5NC(=O)[C@@H]7CCCN7C(=O)[C@H](C8CCCCC8)NC(=O)[C@H](C)NC)NC [AZD5582] + CS(=O)(=O)N1CCN(Cc2cc3nc(-c4cccc5[nH]ncc45)nc(N4CCOCC4)c3s2)CC1 [Pictilisib] (partner 1 µM)
The method in brief:
as §1

Compound in test [4]: C[C@@H](C(=O)N[C@@H](C1CCCCC1)C(=O)N2CCC[C@H]2C(=O)N[C@@H]3[C@@H](CC4=CC=CC=C34)OCC#CC#CCO[C@@H]5CC6=CC=CC=C6[C@@H]5NC(=O)[C@@H]7CCCN7C(=O)[C@H](C8CCCCC8)NC(=O)[C@H](C)NC)NC [AZD5582] + COc1cc2c(Oc3ccc(NC(=O)C4(C(=O)Nc5ccc(F)cc5)CC4)cc3F)ccnc2cc1OCCCN1CCOCC1 [Foretinib] (partner 0.25 µM)
The method in brief: as §1

In the case of CAL-12T, the relative viability in test [1] (first compound 0.2 µM) is 0.865; in test [1] (first compound 0.6325 µM) it was 0.754; in test [1] (first compound 2 µM), 0.775; in test [1] (first compound 6.325 µM) it was 0.697; in test [1] (first compound 20 µM) it was 0.606; in test [2] (first compound 0.2 µM), 0.335. Further, the relative viability in test [2] (first compound 0.6325 µM) was determined as 0.339; in test [2] (first compound 2 µM) it was 0.347; in test [2] (first compound 6.325 µM) it was 0.34; in test [2] (first compound 20 µM), 0.382; in test [3] (first compound 0.001581 µM), 0.305; in test [3] (first compound 0.005 µM) it was 0.314. For the same cell line, the relative viability in test [3] (first compound 0.01581 µM) was 0.265; in test [3] (first compound 0.05 µM), 0.351; in test [4] (first compound 0.001581 µM) it was 0.821; in test [4] (first compound 0.005 µM), 0.772; in test [4] (first compound 0.01581 µM), 1.06; in test [4] (first compound 0.05 µM), 0.732.
In the case of HCC-44, the relative viability in test [1] (first compound 0.2 µM) came to 0.975; in test [1] (first compound 0.6325 µM), 1.02; in test [1] (first compound 2 µM) it was 0.949; in test [1] (first compound 6.325 µM) it was 1.02; in test [1] (first compound 20 µM), 0.854; in test [2] (first compound 0.2 µM) it was 0.795. Also, the relative viability in test [2] (first compound 0.6325 µM) came to 0.953; in test [2] (first compound 2 µM) it was 1.06; in test [2] (first compound 6.325 µM), 0.848; in test [2] (first compound 20 µM) it was 0.996; in test [3] (first compound 0.001581 µM), 0.485; in test [3] (first compound 0.005 µM) it was 0.6. In addition, the results for the relative viability in test [3] (first compound 0.01581 µM) and in test [3] (first compound 0.05 µM) were 0.461 and 0.233, respectively.
Regarding A-427, the relative viability in test [1] (first compound 0.2 µM) is 0.681; in test [1] (first compound 0.6325 µM), 0.729; in test [1] (first compound 2 µM) it was 0.672; in test [1] (first compound 6.325 µM) it was 0.47; in test [1] (first compound 20 µM) it was 0.325; in test [2] (first compound 0.2 µM), 0.201. The relative viability in test [2] (first compound 0.6325 µM) was found to be 0.206; in test [2] (first compound 2 µM), 0.219; in test [2] (first compound 6.325 µM), 0.152; in test [2] (first compound 20 µM), 0.157; in test [3] (first compound 0.001581 µM) it was 0.567; in test [3] (first compound 0.005 µM), 0.671. For the same cell line, the relative viability in test [3] (first compound 0.01581 µM) amounted to 0.734; in test [3] (first compound 0.05 µM) it was 0.587; in test [4] (first compound 0.001581 µM) it was 0.986; in test [4] (first compound 0.005 µM), 0.881; in test [4] (first compound 0.01581 µM), 1.09; in test [4] (first compound 0.05 µM), 0.769.
NCI-H1666: the relative viability in test [1] (first compound 0.2 µM) is 0.731; in test [1] (first compound 0.6325 µM) it was 0.729; in test [1] (first compound 2 µM) it was 0.771; in test [1] (first compound 6.325 µM), 0.639; in test [1] (first compound 20 µM), 0.604; in test [2] (first compound 0.2 µM), 0.594. The relative viability in test [2] (first compound 0.6325 µM) stood at 0.589; in test [2] (first compound 2 µM), 0.631; in test [2] (first compound 6.325 µM), 0.531; in test [2] (first compound 20 µM), 0.5; in test [3] (first compound 0.001581 µM), 0.481; in test [3] (first compound 0.005 µM) it was 0.48. Besides, the relative viability in test [3] (first compound 0.01581 µM) stood at 0.413; in test [3] (first compound 0.05 µM), 0.407; in test [4] (first compound 0.001581 µM), 0.786; in test [4] (first compound 0.005 µM), 1.02; in test [4] (first compound 0.01581 µM), 0.953; in test [4] (first compound 0.05 µM), 0.907.
As to HCC-78, the relative viability turned out to be 0.676 in test [1] (first compound 0.2 µM); 0.778 in test [1] (first compound 0.6325 µM); 0.855 in test [1] (first compound 2 µM); 0.471 in test [1] (first compound 20 µM); 0.282 in test [2] (first compound 0.2 µM); 0.487 in test [2] (first compound 0.6325 µM). The relative viability in test [2] (first compound 2 µM) came out at 0.497; in test [2] (first compound 6.325 µM), 0.493; in test [2] (first compound 20 µM) it was 0.425; in test [3] (first compound 0.001581 µM), 0.198; in test [3] (first compound 0.005 µM), 0.24; in test [3] (first compound 0.01581 µM), 0.147. Also, the relative viability in test [3] (first compound 0.05 µM) is 0.169; in test [4] (first compound 0.001581 µM) it was 0.537; in test [4] (first compound 0.005 µM) it was 0.624; in test [4] (first compound 0.01581 µM), 0.548; in test [4] (first compound 0.05 µM) it was 0.62.
HCC-366: the relative viability amounted to 0.413 in test [1] (first compound 0.2 µM); 0.344 in test [1] (first compound 0.6325 µM); 0.318 in test [1] (first compound 2 µM); 0.311 in test [1] (first compound 6.325 µM); 0.17 in test [1] (first compound 20 µM); 0.097 in test [2] (first compound 0.2 µM). Further, the relative viability in test [2] (first compound 0.6325 µM) was found to be 0.0983; in test [2] (first compound 2 µM), 0.148; in test [2] (first compound 6.325 µM), 0.0779; in test [2] (first compound 20 µM), 0.15; in test [3] (first compound 0.001581 µM), 0.0939; in test [3] (first compound 0.005 µM), 0.203. Further, the relative viability was 0.102 in test [3] (first compound 0.01581 µM); 0.205 in test [3] (first compound 0.05 µM); 0.947 in test [4] (first compound 0.001581 µM); 0.978 in test [4] (first compound 0.005 µM); 1 in test [4] (first compound 0.05 µM).
Consider EPLC-272H, for which the relative viability is 1.13 in test [1] (first compound 0.2 µM); 0.739 in test [1] (first compound 0.6325 µM); 0.833 in test [1] (first compound 2 µM); 0.914 in test [1] (first compound 6.325 µM); 0.49 in test [1] (first compound 20 µM); 0.263 in test [2] (first compound 0.2 µM). Moreover, the relative viability in test [2] (first compound 0.6325 µM) was found to be 0.191; in test [2] (first compound 2 µM), 0.232; in test [2] (first compound 6.325 µM), 0.28; in test [2] (first compound 20 µM), 0.252; in test [3] (first compound 0.001581 µM) it was 0.115; in test [3] (first compound 0.005 µM), 0.0891. Also, the relative viability was found to be 0.216 in test [3] (first compound 0.01581 µM); 0.0826 in test [3] (first compound 0.05 µM); 0.0672 in test [4] (first compound 0.001581 µM); 0.546 in test [4] (first compound 0.01581 µM); 0.0632 in test [4] (first compound 0.05 µM).
Regarding NCI-H1755, the relative viability in test [1] (first compound 0.2 µM) worked out at 0.905; in test [1] (first compound 0.6325 µM) it was 0.85; in test [1] (first compound 2 µM) it was 0.926; in test [1] (first compound 6.325 µM) it was 0.829; in test [1] (first compound 20 µM), 0.568; in test [2] (first compound 0.2 µM) it was 0.579. Also, the relative viability stood at 0.549 in test [2] (first compound 0.6325 µM); 0.58 in test [2] (first compound 2 µM); 0.594 in test [2] (first compound 6.325 µM); 0.528 in test [2] (first compound 20 µM); 0.349 in test [3] (first compound 0.001581 µM); 0.424 in test [3] (first compound 0.005 µM). Moreover, the relative viability is 0.306 in test [3] (first compound 0.01581 µM); 0.398 in test [3] (first compound 0.05 µM); 0.939 in test [4] (first compound 0.001581 µM); 0.98 in test [4] (first compound 0.005 µM); 0.846 in test [4] (first compound 0.01581 µM); 1 in test [4] (first compound 0.05 µM).

These data come from the supplement of paper PMC10307832.
